What all share (experiment): NCI anticancer screen, dose series, 48 h
The test system of assay [1] is RPMI-8226 leukemia.
Assay [2] concerns T-47D breast.
The subject of assay [3] is HT29 colon.
In assay [4] the test system is SN12C renal.
Assay [5] relates to SW-620 colon.
Assay [6] deals with HL-60(TB) leukemia.
Assay [7] deals with MDA-MB-435.
In assay [8] the test system is SNB-75 CNS.
The subject of assay [9] is 786-0 renal.
Assay [10] relates to NCI-H522 lung.

The results in this text go back to PubChem BioAssay (NCI).

SMILES strings stand for the structures.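 Briefly, cells in 96-well plates were exposed to five compound concentrations for 48 h, and endpoints were estimated by linear interpolation. GI50: concentration for 50% inhibition of growth. The concentration for full growth arrest is given as TGI.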 Where only a bound is given, the exact number is not on record here.

Regarding `CN[C@@H](C)C(=O)N[C@H]1CN(C(=O)CC(C)C)CC[C@H]2CC[C@@H](C(=O)NC(c3ccccc3)c3ccccc3)N2C1=O`, the GI50 was > 74.9 µM in assay [1]; > 100 µM in assay [2]; 53.2 µM in [3]; > 100 µM in assay [4]; > 100 µM in assay [5]; 29.1 µM in assay [6]. In addition, the GI50 was > 100 µM in assay [7], 15.7 µM in assay [8], > 100 µM in [9] and 17.6 µM in assay [10]. Moreover, the TGI in assay [1], in [2], in assay [3], in [4], in assay [5] and in assay [6] was > 100 µM in each case. Moreover, the TGI in assay [7] was > 100 µM; in [8], > 100 µM; in assay [9] it was > 100 µM; in assay [10], > 78.9 µM.
As for `CCN(CC)CCCC(C)Nc1cc(-c2ccc(C(F)(F)F)cc2)c(C#N)c2nc3ccccc3n12` (stereo unspecified), the GI50 is 1.96 µM in assay [1]; 2.23 µM in assay [2]; 2.38 µM in [3]; 1.92 µM in [5]; 2.1 µM in [6]; 1.67 µM in assay [7]. For the same compound, the GI50 in assay [9] is 1.51 µM. Further, the TGI is 5.22 µM in [1]; 5.45 µM in assay [2]; 5.58 µM in assay [3]; 3.99 µM in [5]; 4.98 µM in assay [6]; 3.14 µM in assay [7]. For the same compound, the TGI in assay [9] was determined as 2.93 µM.
Consider `COc1cc(-c2nc(NC(C)=O)sc2-c2ccnc(NCCNS(=O)(=O)c3ccccc3)n2)ccc1Cl`, for which the GI50 was 3.77 µM in [1]; 2.69 µM in assay [2]; 2.94 µM in [3]; 5.47 µM in assay [4]; 4.37 µM in assay [5]; 3.14 µM in assay [6]. Moreover, the GI50 in [7] was 0.799 µM; in [8], 1.49 µM; in [9], 4.31 µM; in assay [10], 1.99 µM. The TGI in assay [1] was > 100 µM; in assay [2], > 100 µM; in assay [3] it was > 100 µM; in assay [4], > 100 µM; in assay [5], > 100 µM; in [6], 7.45 µM. Further, the TGI in assay [7] is 3.45 µM; in [8], 7.19 µM; in assay [9], > 100 µM; in assay [10], 8.72 µM.
For `COC(=O)[C@H]1[C@@H](O)[C@@]2(O)c3c(OC)cc(O[C@@H]4O[C@@H]([C@H](O)CO)CO[C@H]4OC)cc3O[C@@]2(c2ccc(OC)cc2)[C@@H]1c1ccccc1`, the GI50 in assay [1] is 0.00314 µM; in assay [2], 0.00226 µM; in assay [3], 0.003 µM; in [4] it was 0.00359 µM; in assay [5] it was 0.00605 µM; in [6], 0.00327 µM. Moreover, the GI50 in assay [7] is 0.00358 µM; in [8] it was 0.004 µM; in [9], 0.0282 µM; in assay [10], 0.00344 µM. In addition, the TGI in assay [1] came out at 0.0113 µM; in assay [2], 0.0199 µM; in assay [3], 0.0142 µM; in assay [4] it was 0.0501 µM; in assay [5], 0.186 µM; in assay [6], 0.0185 µM. The TGI in assay [7] is 0.0143 µM; in [8], 0.0321 µM; in assay [9] it was 0.127 µM; in assay [10] it was 0.0241 µM.
As for `COC(=O)NC1(NC(=O)OC)NC(=O)c2cc(OC)c(OC)cc2N1`, the TGI in assay [1] is > 100 µM; in [2], > 100 µM; in [4] it was > 100 µM; in assay [5], > 100 µM; in assay [7], 13.7 µM; in assay [9] it was > 100 µM. Also, the TGI in assay [10] was determined as 80 µM.
As to `Cc1ccc(S(=O)(=O)Oc2ccc([N+](=O)[O-])cc2[N+](=O)[O-])cc1`, the GI50 in assay [1] is 2.45 µM; in [2], 15.3 µM; in assay [3] it was 3.63 µM; in [4], 3.78 µM; in assay [5], 4.04 µM; in assay [6], 11.4 µM. For the same compound, the GI50 in assay [7] was 3.1 µM; in [8], 6.77 µM; in assay [9], 3.83 µM. Besides, the TGI was found to be 7.84 µM in assay [1]; 45 µM in assay [2]; 58.7 µM in assay [3]; 17.3 µM in assay [4]; 24.9 µM in [5]; 38.3 µM in assay [6]. Also, the TGI was 10.5 µM in assay [7], 21.3 µM in [8] and 14.6 µM in assay [9].
Consider `COc1ccc(CCN2CCCN3C2=Nc2ccccc2S3(=O)=O)cc1`, for which the GI50 is 0.563 µM in assay [1]; 0.56 µM in assay [2]; 0.323 µM in assay [3]; 0.707 µM in [4]; 0.381 µM in assay [5]; 0.296 µM in assay [8]. Moreover, the GI50 in assay [9] is 0.651 µM; in assay [10], 0.278 µM. Further, the TGI in [1] is 53.5 µM; in assay [2], > 100 µM; in assay [3], 17.5 µM; in assay [4], > 100 µM; in assay [5], > 100 µM; in assay [8] it was > 100 µM. For the same compound, the TGI was > 100 µM in assay [9] and 8.86 µM in assay [10].
Regarding `N=C(N)/N=C(\N)c1c(-c2cc(O)ccc2O)nc2sccn12`, the GI50 was 21.9 µM in assay [1]; 20.7 µM in [2]; 36.5 µM in assay [3]; 19.4 µM in [4]; 19.9 µM in assay [5]; 18 µM in assay [7]. The values for the GI50 in assay [9] and in assay [10] were 19.9 µM and 32.4 µM, respectively. Further, the TGI in [1] is 49.5 µM; in assay [2], 45.1 µM; in [3], > 100 µM; in [4] it was 39.7 µM; in assay [5] it was 39.4 µM; in [7] it was 35.3 µM. The TGI in assay [9] was 38.9 µM; in [10], > 100 µM.
